# According to US20190022152A1, “MICROBIOME RESPONSE TO AGENTS” (Yeda Research and Development Co., Ltd., priority 2014, published 2019):
# Test system: fecal microbiota KEGG pathways
# Experiment: Shotgun metagenomic sequencing: KEGG pathway abundance (Table 2)
# Format: in vivo, mice
# Experimental: Illumina sequence reads were mapped to the human microbiome reference genome database of the Human Microbiome Project [www(dot)hmpdacc(dot)org/HMREFG/^32], and to a gut microbial gene catalogue^33 using GEM mapper^58 with the following parameters: • -m 3 -s 0 -q offset-33 -gem-quality-threshold 26
# Microbial species abundance was measured as the fraction of reads that mapped to a single species in the database. An EM algorithm adapted from Pathoscope^59 was employed to determine the correct assignment of reads that mapped to more than one species. We considered only species for which at least 10% of the genome was covered (each coverage bin was 10,000-bp long) in at least one of the growth conditions (saccharin, water, or glucose). Reads mapped to the gut microbial gene catalogue were assigned a KEGG^34,35 ID according to the mapping available with the catalogue. Genes were subsequently mapped to KEGG pathways, and only pathways whose gene coverage was above 0.2 were included.
structure (smiles),measurement,setting,value
O=C1NS(=O)(=O)c2ccccc21 [saccharin],glycan degradation pathways abundance,GF mice transplanted with microbiomes cultured in vitro with 5 mgml^−1 saccharin vs PBS,highly enriched
same,Log_fold change: 2-Oxocarboxylic acid metabolism,In vivo (week 11/week 0),0.10
same,Log_fold change: ABC transporters,In vivo (week 11/week 0),0.02
same,"Log_fold change: Alanine, aspartate and glutamate metabolism",In vivo (week 11/week 0),0.02
same,Log_fold change: Amino sugar and nucleotide sugar metabolism,In vivo (week 11/week 0),0.09
same,Log_fold change: Aminoacyl-tRNA biosynthesis,In vivo (week 11/week 0),−0.13
same,Log_fold change: Aminobenzoate degradation,In vivo (week 11/week 0),0.04
same,Log_fold change: Arginine and proline metabolism,In vivo (week 11/week 0),0.05
same,Log_fold change: Ascorbate and aldarate metabolism,In vivo (week 11/week 0),0.27
same,Log_fold change: Atrazine degradation,In vivo (week 11/week 0),0.12
same,Log_fold change: Bacterial chemotaxis,In vivo (week 11/week 0),0.30
same,Log_fold change: Bacterial secretion system,In vivo (week 11/week 0),−0.10
same,Log_fold change: Base excision repair,In vivo (week 11/week 0),0.03
same,Log_fold change: Benzoate degradation,In vivo (week 11/week 0),0.00
same,Log_fold change: Biosynthesis of amino acids,In vivo (week 11/week 0),0.03
same,Log_fold change: Biosynthesis of siderophore group nonribosomal peptides,In vivo (week 11/week 0),0.16
same,Log_fold change: Biosynthesis of unsaturated fatty acids,In vivo (week 11/week 0),−0.07
same,Log_fold change: Biotin metabolism,In vivo (week 11/week 0),0.13
same,Log_fold change: Bisphenol degradation,In vivo (week 11/week 0),0.04
same,Log_fold change: Butanoate metabolism,In vivo (week 11/week 0),0.00
same,Log_fold change: CS-Branched dibasic acid metabolism,In vivo (week 11/week 0),0.11
same,Log_fold change: Caprolactam degradation,In vivo (week 11/week 0),0.29
same,Log_fold change: Carbon fixation in photosynthetic organisms,In vivo (week 11/week 0),−0.13
same,Log_fold change: Carbon fixation pathways in prokaryotes,In vivo (week 11/week 0),0.01
same,Log_fold change: Carbon metabolism,In vivo (week 11/week 0),0.00
same,Log_fold change: Cell cycle-Caulobacter,In vivo (week 11/week 0),−0.06
same,Log_fold change: Chloroalkane and chloroalkene degradation,In vivo (week 11/week 0),−0.07
same,Log_fold change: Citrate cycle (TCA cycle),In vivo (week 11/week 0),0.03
same,Log_fold change: Cyanoamino acid metabolism,In vivo (week 11/week 0),0.18
same,Log_fold change: Cysteine and methionine metabolism,In vivo (week 11/week 0),−0.02
same,Log_fold change: D-Alanine metabolism,In vivo (week 11/week 0),−0.10
same,Log_fold change: D-Arginine and D-ornithine metabolism,In vivo (week 11/week 0),−0.08
same,Log_fold change: D-Glutamine and D-glutamate metabolism,In vivo (week 11/week 0),−0.04
same,Log_fold change: DDT degradation,In vivo (week 11/week 0),−0.61
same,Log_fold change: DNA replication,In vivo (week 11/week 0),−0.06
same,Log_fold change: Dioxin degradation,In vivo (week 11/week 0),−0.34
same,Log_fold change: Drug metabolism-other enzymes,In vivo (week 11/week 0),0.05
same,Log_fold change: Ether lipid metabolism,In vivo (week 11/week 0),0.05
same,Log_fold change: Fatty acid biosynthesis,In vivo (week 11/week 0),0.05
same,Log_fold change: Fatty acid degradation,In vivo (week 11/week 0),−0.03
same,Log_fold change: Fatty acid metabolism,In vivo (week 11/week 0),0.06
same,Log_fold change: Flagellar assembly,In vivo (week 11/week 0),−0.18
same,Log_fold change: Folate biosynthesis,In vivo (week 11/week 0),0.13
same,Log_fold change: Fructose and mannose metabolism,In vivo (week 11/week 0),0.18
same,Log_fold change: Galactose metabolism,In vivo (week 11/week 0),0.24
same,Log_fold change: Geraniol degradation,In vivo (week 11/week 0),0.04
same,Log_fold change: Glutathione metabolism,In vivo (week 11/week 0),0.12
same,Log_fold change: Glycerolipid metabolism,In vivo (week 11/week 0),0.11
same,Log_fold change: Glycerophospholipid metabolism,In vivo (week 11/week 0),0.06
same,"Log_fold change: Glycine, serine and threonine metabolism",In vivo (week 11/week 0),0.13
same,Log_fold change: Glycolysis/Gluconeogenesis,In vivo (week 11/week 0),−0.09
same,Log_fold change: Glycosaminoglycan degradation,In vivo (week 11/week 0),0.34
same,Log_fold change: Glycosphingolipid biosynthesis-globoseries,In vivo (week 11/week 0),0.33
same,Log_fold change: Glyoxylate and dicarboxylate metabolism,In vivo (week 11/week 0),0.13
same,Log_fold change: Histidine metabolism,In vivo (week 11/week 0),0.13
same,Log_fold change: Homologous recombination,In vivo (week 11/week 0),−0.09
same,Log_fold change: Inositol phosphate metabolism,In vivo (week 11/week 0),−0.01
same,Log_fold change: Limonene and pinene degradation,In vivo (week 11/week 0),0.04
same,Log_fold change: Lipoicacid metabolism,In vivo (week 11/week 0),0.36
same,Log_fold change: Lipopolysaccharide biosynthesis,In vivo (week 11/week 0),0.21
same,Log_fold change: Lysine biosynthesis,In vivo (week 11/week 0),−0.07
same,Log_fold change: Lysine degradation,In vivo (week 11/week 0),0.14
same,Log_fold change: Methane metabolism,In vivo (week 11/week 0),0.02
same,Log_fold change: Mismatch repair,In vivo (week 11/week 0),−0.03
same,Log_fold change: Naphthalene degradation,In vivo (week 11/week 0),0.04
same,Log_fold change: Nicotinate and nicotinamide metabolism,In vivo (week 11/week 0),−0.05
same,Log_fold change: Nitrogen metabolism,In vivo (week 11/week 0),0.00
same,Log_fold change: Nitrotoluene degradation,In vivo (week 11/week 0),−0.22
same,Log_fold change: Novobiocin biosynthesis,In vivo (week 11/week 0),0.29
same,Log_fold change: Nucleotide excision repair,In vivo (week 11/week 0),−0.08
same,Log_fold change: One carbon pool by folate,In vivo (week 11/week 0),0.07
same,Log_fold change: Other glycan degradation,In vivo (week 11/week 0),0.36
same,Log_fold change: Oxidative phosphorylation,In vivo (week 11/week 0),−0.03
same,Log_fold change: Pantothenate and CoA biosynthesis,In vivo (week 11/week 0),0.04
same,Log_fold change: Penicillin and cephalosporin biosynthesis,In vivo (week 11/week 0),0.00
same,Log_fold change: Pentose and glucuronate interconversions,In vivo (week 11/week 0),0.31
same,Log_fold change: Pentose phosphate pathway,In vivo (week 11/week 0),0.03
same,Log_fold change: Peptidoglycan biosynthesis,In vivo (week 11/week 0),0.01
same,Log_fold change: Phenylalanine metabolism,In vivo (week 11/week 0),0.30
same,"Log_fold change: Phenylalanine, tyrosine and tryptophan biosynthesis",In vivo (week 11/week 0),0.24
same,Log_fold change: Phosphonate and phosphinate metabolism,In vivo (week 11/week 0),0.30
same,Log_fold change: Phosphotransferase system (PTS),In vivo (week 11/week 0),−0.43
same,Log_fold change: Porphyrin and chlorophyll metabolism,In vivo (week 11/week 0),0.23
same,Log_fold change: Propanoate metabolism,In vivo (week 11/week 0),0.02
same,Log_fold change: Protein export,In vivo (week 11/week 0),−0.04
same,Log_fold change: Proximal tubule bicarbonate reclamation,In vivo (week 11/week 0),−0.01
same,Log_fold change: Purine metabolism,In vivo (week 11/week 0),−0.08
same,Log_fold change: Pyrimidine metabolism,In vivo (week 11/week 0),−0.08
same,Log_fold change: Pyruvate metabolism,In vivo (week 11/week 0),0.01
same,Log_fold change: RNA degradation,In vivo (week 11/week 0),−0.05
same,Log_fold change: Riboflavin metabolism,In vivo (week 11/week 0),−0.02
same,Log_fold change: Ribosome,In vivo (week 11/week 0),−0.24
same,Log_fold change: Selenocompound metabolism,In vivo (week 11/week 0),0.03
same,Log_fold change: Sphingolipid metabolism,In vivo (week 11/week 0),0.34
same,Log_fold change: Starch and sucrose metabolism,In vivo (week 11/week 0),0.19
same,Log_fold change: Streptomycin biosynthesis,In vivo (week 11/week 0),0.10
same,Log_fold change: Styrene degradation,In vivo (week 11/week 0),−0.06
same,Log_fold change: Sulfur metabolism,In vivo (week 11/week 0),0.19
same,Log_fold change: Sulfur relay system,In vivo (week 11/week 0),−0.03
same,Log_fold change: Synthesis and degradation of ketone bodies,In vivo (week 11/week 0),−0.35
same,Log_fold change: Taurine and hypotaurine metabolism,In vivo (week 11/week 0),0.14
same,Log_fold change: Terpenoid backbone biosynthesis,In vivo (week 11/week 0),0.04
same,Log_fold change: Tetracycline biosynthesis,In vivo (week 11/week 0),−0.50
same,Log_fold change: Thiamine metabolism,In vivo (week 11/week 0),−0.03
same,"Log_fold change: Tropane, piperidine and pyridine alkaloid biosynthesis",In vivo (week 11/week 0),0.27
same,Log_fold change: Tryptophan metabolism,In vivo (week 11/week 0),0.01
same,Log_fold change: Two−component system,In vivo (week 11/week 0),0.06
same,Log_fold change: Tyrosine metabolism,In vivo (week 11/week 0),0.02
same,Log_fold change: Ubiquinone and other terpenoid-quinone biosynthesis,In vivo (week 11/week 0),0.03
same,"Log_fold change: Valine, leucine and isoleucine biosynthesis",In vivo (week 11/week 0),0.10
same,"Log_fold change: Valine, leucine and isoleucine degradation",In vivo (week 11/week 0),0.06
same,Log_fold change: Vibriocholerae pathogenic cycle,In vivo (week 11/week 0),−0.01
same,Log_fold change: Vitamin B6 metabolism,In vivo (week 11/week 0),0.16
same,Log_fold change: Xylene degradation,In vivo (week 11/week 0),−0.51
same,Log_fold change: beta-Alanine metabolism,In vivo (week 11/week 0),0.14
same,Log_fold change: beta-Lactam resistance,In vivo (week 11/week 0),0.11
same,"KEGG pathways incl. ascorbate and aldarate metabolism, lipopolysaccharide biosynthesis, bacterial chemotaxis",mice consuming HFD and pure saccharin vs water,multiple enriched pathways
same,"starch and sucrose, fructose and mannose metabolism, folate-, glycerolipid- and fatty acid biosynthesis pathways",microbiomes of saccharin consuming mice,enriched
same,glucose transport pathways,saccharin-consuming mice,underrepresented
same,glycan degradation pathways abundance,"saccharin-consuming mice, week 11 vs week 0",strong increase
